In US20250003877A1, “Silyl Bridged Dyes” (priority 2021, published 2025):

What was measured:
[1] = type: physicochemical
Excerpt: Strain-promoted lowering of the Si σ* energy in cyclic silanes is another approach to red-shift emission. Treatment of 1-1 with cyclohexyl dichlorosilane yielded the expected Si-rhodamine dye (Scheme 1A). However, the reactions with the corresponding five and four-membered ring analogs yielded many side products. The cyclopentyl analog 028 was obtained in good yield through an alternate synthetic pathway (Scheme 4), but the four-membered ring analog could not be isolated by either route. The silacyclopentyl analog is red-shifted compared to 001 and compound 014, consistent with a strain-induced LUMO-lowering effect (Table 3).
Scheme 10. Instability of silacyclopentyl dye 028 in solution. Proposed ring-opened product in methanol (the solvent used for HRMS analysis).

[2] = PBS
[3] = target: T1, SNAP-tag (pSNAPf-H2B) in HeLa cells (Homo sapiens, UniProt P16455, A127T/A154D/C150Q/C62A/E30R/G131K/G132T/G153L/K125A/K32I/L33F/M134L/N157G/Q115S/Q116H/R128A/R135S/S151G/S152D/S159E); assay: Live cell imaging of SNAP-tag-expressing cells with Si-bridge dyes; type: cell-based; conditions: 3 μM dye, 30 min, 37° C., washed, HeLa transfected with pSNAPf-H2B
T1 construct: host or cells: HeLa cells, transient transfection with Lipofectamine 2000
T1 sequence (P16455 1-182 E30R/K32I/L33F/C62A/Q115S/Q116H/K125A/A127T/R128A/G131K/G132T/M134L/R135S/C150Q/S151G/S152D/G153L/A154D/N157G/S159E limits assumed): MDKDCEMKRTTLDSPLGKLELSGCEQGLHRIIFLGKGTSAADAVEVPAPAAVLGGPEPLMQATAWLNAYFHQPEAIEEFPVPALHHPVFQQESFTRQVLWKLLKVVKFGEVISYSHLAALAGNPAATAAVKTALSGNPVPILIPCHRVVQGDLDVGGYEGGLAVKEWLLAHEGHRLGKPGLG
Protocol: HeLa cells were seeded in 35 mm glass bottom dishes (Cellvis, catalog no. D35-28-O-N), and transfected with […] control plasmid (Addgene #101124). Transient transfections were performed using Lipofectamine 2000 (Invitrogen, catalog no. 1168019) following the manufacturer's instructions. HeLa cell labeling and confocal imaging were performed 24 hr after transfection. Labeling with SNAP-Cell® 647 SiR (New England Biolabs, catalog no. […]) and new dyes 065 and 066 containing benzylguanine SNAP-tag ligands were performed following the manufacturer's instructions. SNAP-tag is another popular system for labeling fusion proteins. SNAP-tag is more promiscuous towards its substrates than HaloTag, and thus it was anticipated that the relative fluorogenic behavior for each Si-bridge dye isomer would differ from the stark facial selectivity results seen above with Hoechst probes and HaloTag. Briefly, cells were incubated with 3 μM dye in cell culture medium for 30 min at 37° C. The cells were then washed three times with tissue culture medium and incubated in fresh medium for 30 minutes. The medium was replaced one more time to remove unreacted […] before imaging. […] Dyes fluorescing in the Cy5 channel were excited with the HeNe (633 nm) laser at a 15% intensity and detected through a 640-615 band pass filter and […] pinhole. […]

Row | Structure (SMILES) | chemical stability in solution [1] | Brightness (ϕ × ε) [2] | Em (nm) [2] [nm] | Ex (nm) [2] [nm] | ε (M^−1 cm^−1) [2] | ϕ (quantum yield) ([2]; pH 7.4) | labeling of SNAP-tag [3]
1 | Cc1ccccc1C1=C2C=CC(=[N+](C)C)C=C2[Si]2(CCCC2)c2cc(N(C)C)ccc21 [Compound 028, N-(7-(Dimethylamino)-10-(o-tolyl)-3H-spiro[dibenzo[b,e]siline-5,1′-silolan]-3-ylidene)-N-methylmethanaminium] | chemically unstable in solution | 54,826 | 671 | 653 | 158,000 M^−1 cm^−1 | 0.35 | 
2 | CN(C)c1ccc2c(c1)[Si@](C)(CCCSCC(=O)NCc1ccc(COc3nc(N)nc4[nH]cnc34)cc1)c1cc(N(C)C)ccc1[C@]21OC(=O)c2ccccc21 [Compound 065, N-(4-(((2-Amino-9H-purin-6-yl)oxy)methyl)benzyl)-2-((3-((5s,10s)-3,7-bis(dimethylamino)-5-methyl-3′-oxo-3′H,5H-spiro[dibenzo[b,e]siline-10,1′-isobenzofuran]-5-yl)propyl)thio)acetamide] |  |  |  |  |  |  | labeled SNAP-tag
3 | CN(C)c1ccc2c(c1)[Si@](C)(CCCSCC(=O)NCc1ccc(COc3nc(N)nc4[nH]cnc34)cc1)c1cc(N(C)C)ccc1[C@@]21OC(=O)c2ccccc21 [Compound 066, N-(4-(((2-Amino-9H-purin-6-yl)oxy)methyl)benzyl)-2-((3-((5r,10r)-3,7-bis(dimethylamino)-5-methyl-3′-oxo-3′H,5H-spiro[dibenzo[b,e]siline-10,1′-isobenzofuran]-5-yl)propyl)thio)acetamide] |  |  |  |  |  |  | labeled SNAP-tag
